The results in this text go back to ChEMBL document CHEMBL1144370, “3-Acyl-2,6-diaminopyridines as cyclin-dependent kinase inhibitors: synthesis and biological evaluation” (Bioorg Med Chem Lett, 2005).

The target of test [1] is Epidermal growth factor receptor (Homo sapiens, UniProt P00533). Briefly: In vitro inhibitory concentration against epidermal growth factor receptor.
For test [2], the target named is Receptor tyrosine-protein kinase erbB-2 (Homo sapiens, UniProt P04626). The experiment in a line: In vitro inhibitory concentration against HER2.
Another test concerns A-375. The experiment in a line: Compound tested for anti-proliferative activity against A375 cells. The format is functional, cell-based. The following applies: Homo sapiens.
Test [3] addresses T1, Vascular endothelial growth factor receptor 2 (Homo sapiens, UniProt P35968). The experiment in a line: In vitro inhibitory concentration against vascular endothelial growth factor receptor 2.
A further test has as its system HCT-116. The experiment in a line: Compound tested for anti-proliferative activity against HCT116 cells. The class given is functional, cell-based. As to conditions: Homo sapiens.
In test [4] the target is Cyclin-dependent kinase 2 (Homo sapiens, UniProt P24941). The experiment in a line: In vitro inhibitory concentration against cyclin-dependent kinase 2.
Test [5] is described as follows: In vitro inhibitory concentration against cyclin-dependent kinase 1. Set-up: species or system Homo sapiens.
The subject of the next test is HeLa. The experiment in a line: Compound tested for anti-proliferative activity against HeLa cells. As to conditions: Homo sapiens. The format is functional, cell-based.
The target of test [6] is T1, Vascular endothelial growth factor receptor 2. The experiment in a line: In vitro inhibitory concentration against Vascular endothelial growth factor receptor 2.

Sequence of Epidermal growth factor receptor (P00533 whole entry): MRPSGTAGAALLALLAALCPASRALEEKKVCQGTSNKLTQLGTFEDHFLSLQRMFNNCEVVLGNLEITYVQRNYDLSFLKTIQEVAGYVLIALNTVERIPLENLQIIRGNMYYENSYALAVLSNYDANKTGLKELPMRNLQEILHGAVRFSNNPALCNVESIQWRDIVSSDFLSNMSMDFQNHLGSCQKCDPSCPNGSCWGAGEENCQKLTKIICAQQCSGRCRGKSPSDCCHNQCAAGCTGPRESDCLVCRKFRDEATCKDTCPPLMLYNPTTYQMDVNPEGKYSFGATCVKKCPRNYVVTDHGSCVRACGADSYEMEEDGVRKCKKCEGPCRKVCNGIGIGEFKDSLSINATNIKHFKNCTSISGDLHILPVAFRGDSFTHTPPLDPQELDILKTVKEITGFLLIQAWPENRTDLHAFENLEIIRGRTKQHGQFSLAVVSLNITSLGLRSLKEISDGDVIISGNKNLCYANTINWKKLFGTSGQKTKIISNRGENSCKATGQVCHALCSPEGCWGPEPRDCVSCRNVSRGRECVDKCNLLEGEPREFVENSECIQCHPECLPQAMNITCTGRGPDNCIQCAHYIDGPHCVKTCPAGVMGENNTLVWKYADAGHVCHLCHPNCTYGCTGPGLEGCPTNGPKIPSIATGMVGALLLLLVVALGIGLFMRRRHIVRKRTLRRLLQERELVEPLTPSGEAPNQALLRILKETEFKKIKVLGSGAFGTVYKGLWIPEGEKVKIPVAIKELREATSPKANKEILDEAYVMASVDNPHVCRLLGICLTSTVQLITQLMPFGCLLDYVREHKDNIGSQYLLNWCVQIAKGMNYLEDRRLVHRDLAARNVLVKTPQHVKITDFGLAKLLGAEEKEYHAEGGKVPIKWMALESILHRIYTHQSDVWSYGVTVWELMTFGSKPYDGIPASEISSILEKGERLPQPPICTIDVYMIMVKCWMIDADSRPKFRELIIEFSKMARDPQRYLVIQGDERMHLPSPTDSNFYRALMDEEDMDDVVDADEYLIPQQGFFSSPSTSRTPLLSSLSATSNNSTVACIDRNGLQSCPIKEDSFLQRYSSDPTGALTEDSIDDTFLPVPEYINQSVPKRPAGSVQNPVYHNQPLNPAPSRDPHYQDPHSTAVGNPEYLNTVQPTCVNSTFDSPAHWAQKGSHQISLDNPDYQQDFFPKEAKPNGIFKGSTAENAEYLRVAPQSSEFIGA
Sequence of Receptor tyrosine-protein kinase erbB-2 (P04626 whole entry): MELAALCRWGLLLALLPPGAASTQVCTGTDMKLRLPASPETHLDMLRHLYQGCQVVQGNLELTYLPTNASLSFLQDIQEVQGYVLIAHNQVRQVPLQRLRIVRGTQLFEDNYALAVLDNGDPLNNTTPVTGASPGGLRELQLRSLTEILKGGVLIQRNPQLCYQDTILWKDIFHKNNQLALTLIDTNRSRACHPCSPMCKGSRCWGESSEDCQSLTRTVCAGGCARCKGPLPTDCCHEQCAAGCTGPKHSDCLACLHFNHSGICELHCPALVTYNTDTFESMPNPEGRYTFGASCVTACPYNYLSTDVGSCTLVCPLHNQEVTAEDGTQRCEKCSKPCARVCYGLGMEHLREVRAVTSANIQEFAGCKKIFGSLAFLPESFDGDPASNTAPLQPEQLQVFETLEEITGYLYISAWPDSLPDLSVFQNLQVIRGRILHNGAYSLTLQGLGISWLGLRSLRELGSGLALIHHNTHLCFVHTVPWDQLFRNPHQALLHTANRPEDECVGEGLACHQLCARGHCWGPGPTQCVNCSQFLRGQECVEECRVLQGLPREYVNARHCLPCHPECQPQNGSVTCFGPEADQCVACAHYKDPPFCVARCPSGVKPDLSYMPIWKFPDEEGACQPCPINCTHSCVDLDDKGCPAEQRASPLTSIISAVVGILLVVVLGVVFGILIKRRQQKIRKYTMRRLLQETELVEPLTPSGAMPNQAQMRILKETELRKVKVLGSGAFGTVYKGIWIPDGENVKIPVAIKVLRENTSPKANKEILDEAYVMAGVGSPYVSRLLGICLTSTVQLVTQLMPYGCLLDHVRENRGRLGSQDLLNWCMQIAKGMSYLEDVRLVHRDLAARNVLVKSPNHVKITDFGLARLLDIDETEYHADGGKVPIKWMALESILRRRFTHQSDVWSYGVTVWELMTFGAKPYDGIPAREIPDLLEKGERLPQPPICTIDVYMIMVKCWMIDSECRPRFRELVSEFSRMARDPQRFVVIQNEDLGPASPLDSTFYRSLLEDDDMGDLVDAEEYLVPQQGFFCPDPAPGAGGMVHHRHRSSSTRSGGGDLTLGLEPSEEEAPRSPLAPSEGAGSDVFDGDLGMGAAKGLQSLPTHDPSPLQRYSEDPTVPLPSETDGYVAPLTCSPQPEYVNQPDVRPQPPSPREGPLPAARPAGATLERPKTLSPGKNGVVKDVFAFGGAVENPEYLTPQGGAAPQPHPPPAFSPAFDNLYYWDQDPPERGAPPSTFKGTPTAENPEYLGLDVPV
T1 sequence (P35968 whole entry): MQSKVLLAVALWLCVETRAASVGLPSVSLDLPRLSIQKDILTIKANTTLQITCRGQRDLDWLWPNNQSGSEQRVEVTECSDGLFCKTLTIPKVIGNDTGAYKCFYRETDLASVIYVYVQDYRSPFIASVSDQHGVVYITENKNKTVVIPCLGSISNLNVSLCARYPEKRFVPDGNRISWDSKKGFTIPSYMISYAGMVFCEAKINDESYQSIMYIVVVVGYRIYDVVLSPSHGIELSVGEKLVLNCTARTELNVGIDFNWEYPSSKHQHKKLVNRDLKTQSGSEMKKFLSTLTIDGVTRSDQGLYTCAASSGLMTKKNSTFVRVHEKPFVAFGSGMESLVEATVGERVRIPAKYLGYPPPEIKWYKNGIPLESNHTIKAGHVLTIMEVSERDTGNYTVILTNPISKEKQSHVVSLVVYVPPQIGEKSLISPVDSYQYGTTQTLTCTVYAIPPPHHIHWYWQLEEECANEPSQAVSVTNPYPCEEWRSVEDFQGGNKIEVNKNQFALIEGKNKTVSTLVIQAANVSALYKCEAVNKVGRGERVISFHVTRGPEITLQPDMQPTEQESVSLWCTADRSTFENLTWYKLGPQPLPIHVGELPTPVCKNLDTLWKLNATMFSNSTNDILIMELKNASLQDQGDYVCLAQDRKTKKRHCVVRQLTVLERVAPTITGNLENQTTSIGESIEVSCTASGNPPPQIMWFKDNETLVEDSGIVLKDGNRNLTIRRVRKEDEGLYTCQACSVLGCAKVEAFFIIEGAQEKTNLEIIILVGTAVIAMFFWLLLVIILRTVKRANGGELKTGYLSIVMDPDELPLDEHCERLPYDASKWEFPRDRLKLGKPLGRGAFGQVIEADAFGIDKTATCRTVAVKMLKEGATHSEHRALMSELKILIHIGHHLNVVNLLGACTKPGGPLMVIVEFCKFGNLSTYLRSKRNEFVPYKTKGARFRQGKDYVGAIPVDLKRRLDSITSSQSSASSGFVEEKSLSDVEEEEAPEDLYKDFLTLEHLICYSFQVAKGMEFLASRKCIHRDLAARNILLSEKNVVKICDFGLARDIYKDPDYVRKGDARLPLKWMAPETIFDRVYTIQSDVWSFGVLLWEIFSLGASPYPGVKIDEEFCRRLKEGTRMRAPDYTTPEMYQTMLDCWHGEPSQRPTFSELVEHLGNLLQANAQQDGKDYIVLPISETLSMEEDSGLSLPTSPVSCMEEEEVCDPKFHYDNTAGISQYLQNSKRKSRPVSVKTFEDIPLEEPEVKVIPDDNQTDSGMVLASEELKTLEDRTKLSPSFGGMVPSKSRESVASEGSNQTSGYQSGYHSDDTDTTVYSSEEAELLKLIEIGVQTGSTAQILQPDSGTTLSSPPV

Turning to `CN(C)S(=O)(=O)c1ccc(Nc2ccc(C(=O)c3c(F)cccc3F)c(N)n2)cc1`, the IC50 in test [1] was above 100 µM; in test [2], above 100 µM; in the test on A-375, above 10 µM; in [3], above 100 µM; in the test with HCT-116, above 10 µM; in test [4], 0.5 µM. For the same compound, the IC50 in [5] is 0.59 µM; in the test with HeLa it was above 10 µM. `Nc1ccc(C(=O)c2ccccc2)c(N)n1` returned an IC50 in [5] of 1.1 µM. On to `Nc1nc(Nc2ccc(S(N)(=O)=O)cc2)ccc1C(=O)c1c(F)cccc1F`, for which the IC50 in test [1] was above 100 µM; in test [2] it was above 100 µM; in the test with A-375, 6.5 µM; in the test on HCT-116, 16.5 µM; in [4], 0.18 µM; in test [5] it was 0.36 µM. For the same compound, the IC50 in [6] is above 100 µM; in the test with HeLa it was 17.2 µM. Compound `Nc1nc(Nc2ccc(NS(=O)(=O)c3ccccc3)cc2)ccc1C(=O)c1c(F)cccc1F` had an IC50 in [5] of 0.74 µM. Same read-out and setting: the value for `Nc1ccc(C(=O)c2ccccc2F)c(N)n1` was 8.2 µM; that for `CCN(CC)S(=O)(=O)c1ccc(Nc2ccc(C(=O)c3ccco3)c(N)n2)cc1` was above 100 µM; that for `N#Cc1ccc(Nc2ccc(C(=O)c3c(F)cccc3F)c(N)n2)cc1` was 1.37 µM. In [5], `Nc1nc(Nc2cccc([N+](=O)[O-])c2)ccc1C(=O)c1c(F)cccc1F` returned an IC50 of 2.67 µM. For the compound `Nc1ccc(Nc2ccc(C(=O)c3c(F)cccc3F)c(N)n2)cc1`, in [5], the half-inhibitory concentration (IC50) came out at 0.75 µM. On the same count and under the same terms, the value for `CN(C)S(=O)(=O)c1ccc(Nc2ccc(C(=O)c3cccs3)c(N)n2)cc1` was 12.7 µM. Still for that read-out and setting: for `Nc1ccccc1Nc1ccc(C(=O)c2c(F)cccc2F)c(N)n1` the value was 11.6 µM. The same measure, in the same setting: for `Nc1nc(Nc2ccc(S(=O)(=O)N(Cc3ccccc3)Cc3ccccc3)cc2)ccc1C(=O)c1c(F)cccc1F` the value was above 10 µM; for `Nc1nc(Nc2ccccc2)ccc1C(=O)c1c(F)cccc1F`, 21.7 µM; for `Nc1ccc(C(=O)c2cccs2)c(N)n1`, above 100 µM. In turn, `Nc1ccc(C(=O)c2ccco2)c(N)n1` had an IC50 in [5] above 100 µM. In [5], `CC(=O)Nc1ccccc1Nc1ccc(C(=O)c2c(F)cccc2F)c(N)n1` gave a half-inhibitory concentration (IC50) above 100 µM. Still for that read-out and setting: the value for `Nc1nc(Nc2ccccn2)ccc1C(=O)c1c(F)cccc1F` was 12.3 µM; that for `Nc1nc(Nc2ccccc2NS(=O)(=O)c2ccccc2)ccc1C(=O)c1c(F)cccc1F` was above 100 µM. Still for that read-out and setting: for `CCN(CC)S(=O)(=O)c1ccc(Nc2ccc(C(=O)c3ccccc3)c(N)n2)cc1` the value was above 100 µM; for `NC(=O)c1ccc(Nc2ccc(C(=O)c3c(F)cccc3F)c(N)n2)cc1`, 0.95 µM. On the same count and under the same terms, for `Nc1nc(Nc2ccc(C(=O)O)cc2)ccc1C(=O)c1c(F)cccc1F` the value was around 10 µM; for `CN(C)S(=O)(=O)c1ccc(Nc2ccc(C(=O)c3ccccc3)c(N)n2)cc1`, 2.19 µM; for `Nc1nc(Nc2ccccc2[N+](=O)[O-])ccc1C(=O)c1c(F)cccc1F`, above 10 µM. On to `CCCCOc1cc(Nc2ccc(S(=O)(=O)N(C)C)cc2)nc(N)c1C(=O)c1c(F)cccc1F`, for which the IC50 in test [5] amounted to 1 µM. On the same count and under the same terms, the value for `CCCCOc1cc(N)nc(N)c1C(=O)c1c(F)cccc1F` was 1.2 µM. In the case of `CCCCOc1cc(Nc2ccc(S(N)(=O)=O)cc2)nc(N)c1C(=O)c1c(F)cccc1F`, the IC50 in test [1] is above 100 µM; in test [2], above 100 µM; in the test on A-375 it was 2.9 µM; in the test with HCT-116 it was 6.7 µM; in [4] it was 0.084 µM; in [5] it was 0.26 µM. Besides, the IC50 in [6] was above 100 µM; in the test with HeLa, 10.7 µM.

On to `CN(C)S(=O)(=O)c1ccc(Nc2ccc(C(=O)c3ccco3)c(N)n2)cc1`, for which, in test [5], the IC50 was 10.6 µM. The same measure, in the same setting: the value for `CNc1ccc(Nc2ccc(C(=O)c3c(F)cccc3F)c(N)n2)cc1` was 1.14 µM. Still for that read-out and setting: the value for `Nc1nc(Nc2ccc([N+](=O)[O-])cc2)ccc1C(=O)c1c(F)cccc1F` was 0.96 µM. Still for that read-out and setting: for `Nc1nc(Nc2cccc(Cl)c2)ccc1C(=O)c1c(F)cccc1F` the value was 6.16 µM. For `CN(C)S(=O)(=O)c1ccc(Nc2ccc(C(=O)c3ccccc3F)c(N)n2)cc1`, the IC50 in test [5] was 1.96 µM. In turn, `Nc1ccc(C(=O)c2c(F)cccc2F)c(N)n1` gave an IC50 in test [5] of 2.6 µM.

The compound `Nc1nc(Nc2ccccc2NC(=O)c2ccccc2)ccc1C(=O)c1c(F)cccc1F` showed an IC50 in test [5] above 100 µM.

One may read the IC50 as the concentration that inhibits the measured activity by half.
